Results on nine molecules are retold here after ChEMBL document CHEMBL5331081, “Discovery of cysteine-targeting covalent histone methyltransferase inhibitors” (Eur J Med Chem, 2023).

As usually defined, the IC50 is the concentration that inhibits the measured activity by half. Read a high IC50 as lower potency. As usually defined, the bioavailability is dose-corrected exposure relative to a reference, in per cent. A low value points to poor availability. A word on the GI50: it is the concentration at which growth is held to half of that of the control.

The nature of data set [1]: Reduction in H3K9me2 level in human MDA-MB-231 cells incubated for 48 hrs by ChIP assay. In kind it is functional, cell-based. The conditions noted are these: MDA-MB-231, 48 h.
The nature of data set [2]: in vivo. The conditions noted are these: CD-1, mouse, po, 100 mg/kg.
Data set [3] deals with NCI-H1299. The data set can be described thus: Anticancer activity against human NCI-H1299 cells assessed as cell growth inhibition measured after 48 hrs by CCK-8 assay. In kind it is functional.
For data set [4], the system named is A549. The data set can be described thus: Anticancer activity against human A549 cells assessed as cell growth inhibition measured after 48 hrs by CCK-8 assay. The format is functional.
Data set [5] deals with MDA-MB-231. In words: Anticancer activity against human MDA-MB-231 cells assessed as cell growth inhibition measured after 48 hrs by CCK-8 assay. In kind it is functional. (In general: Formazan colour is commonly taken as a measure of viable cells.)
Data set [6] relates to MCF7. The data set can be described thus: Anticancer activity against human MCF7 cells assessed as cell growth inhibition measured after 48 hrs by CCK-8 assay. The format is functional.
A short description of data set [7]: Anticancer activity against human MOLM16 cells assessed as cell growth inhibition measured after 7 days by WST-8 assay. The conditions noted are these: MOLM16, 168 h, time 7 day. The format is functional, MOLM-16.
The subject of data set [8] is MV4-11. The data set can be described thus: Anticancer activity against human MV4-11 cells harboring MLL-AF4 fusion protein assessed as cell growth inhibition measured after 7 days by WST-8 assay. In kind it is functional. As to conditions: MV4-11, 168 h, pooled result: one value given for 6 cell lines, strains, targets or settings, time 7 day.
The subject of data set [9] is SKM-1. In words: Anticancer activity against human SKM-1 cells assessed as cell growth inhibition measured after 7 days by WST-8 assay. The format is functional. The conditions noted are these: SKM-1, 168 h, time 7 day.
The target in data set [10] is Menin/Histone-lysine N-methyltransferase MLL (Homo sapiens, UniProt O00255+Q03164). In words: Inhibition of menin (unknown origin)/MLL (unknown origin) protein-protein interaction by fluorescence polarization assay. A general note: Fluorescence polarisation rises when a labelled molecule tumbles more slowly, as on binding a larger partner.
Chain of Menin/Histone-lysine N-methyltransferase MLL (O00255 whole entry): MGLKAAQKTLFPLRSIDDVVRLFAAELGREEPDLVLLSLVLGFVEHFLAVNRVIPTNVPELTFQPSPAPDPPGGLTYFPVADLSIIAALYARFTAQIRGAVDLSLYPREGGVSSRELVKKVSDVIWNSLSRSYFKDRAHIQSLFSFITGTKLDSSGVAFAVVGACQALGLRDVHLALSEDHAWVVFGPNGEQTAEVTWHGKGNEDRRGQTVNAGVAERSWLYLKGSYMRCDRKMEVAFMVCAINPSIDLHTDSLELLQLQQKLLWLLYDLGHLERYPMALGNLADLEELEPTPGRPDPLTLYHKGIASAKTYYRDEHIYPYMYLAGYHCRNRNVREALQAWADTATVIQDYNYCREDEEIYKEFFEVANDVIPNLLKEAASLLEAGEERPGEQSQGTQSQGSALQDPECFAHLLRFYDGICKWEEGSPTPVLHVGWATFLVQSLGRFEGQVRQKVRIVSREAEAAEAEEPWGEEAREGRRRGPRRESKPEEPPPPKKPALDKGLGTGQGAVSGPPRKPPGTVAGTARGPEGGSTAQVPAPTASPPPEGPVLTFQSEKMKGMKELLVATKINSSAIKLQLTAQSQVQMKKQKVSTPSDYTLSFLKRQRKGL
Chain of Menin/Histone-lysine N-methyltransferase MLL (Q03164 1-2718 limits assumed): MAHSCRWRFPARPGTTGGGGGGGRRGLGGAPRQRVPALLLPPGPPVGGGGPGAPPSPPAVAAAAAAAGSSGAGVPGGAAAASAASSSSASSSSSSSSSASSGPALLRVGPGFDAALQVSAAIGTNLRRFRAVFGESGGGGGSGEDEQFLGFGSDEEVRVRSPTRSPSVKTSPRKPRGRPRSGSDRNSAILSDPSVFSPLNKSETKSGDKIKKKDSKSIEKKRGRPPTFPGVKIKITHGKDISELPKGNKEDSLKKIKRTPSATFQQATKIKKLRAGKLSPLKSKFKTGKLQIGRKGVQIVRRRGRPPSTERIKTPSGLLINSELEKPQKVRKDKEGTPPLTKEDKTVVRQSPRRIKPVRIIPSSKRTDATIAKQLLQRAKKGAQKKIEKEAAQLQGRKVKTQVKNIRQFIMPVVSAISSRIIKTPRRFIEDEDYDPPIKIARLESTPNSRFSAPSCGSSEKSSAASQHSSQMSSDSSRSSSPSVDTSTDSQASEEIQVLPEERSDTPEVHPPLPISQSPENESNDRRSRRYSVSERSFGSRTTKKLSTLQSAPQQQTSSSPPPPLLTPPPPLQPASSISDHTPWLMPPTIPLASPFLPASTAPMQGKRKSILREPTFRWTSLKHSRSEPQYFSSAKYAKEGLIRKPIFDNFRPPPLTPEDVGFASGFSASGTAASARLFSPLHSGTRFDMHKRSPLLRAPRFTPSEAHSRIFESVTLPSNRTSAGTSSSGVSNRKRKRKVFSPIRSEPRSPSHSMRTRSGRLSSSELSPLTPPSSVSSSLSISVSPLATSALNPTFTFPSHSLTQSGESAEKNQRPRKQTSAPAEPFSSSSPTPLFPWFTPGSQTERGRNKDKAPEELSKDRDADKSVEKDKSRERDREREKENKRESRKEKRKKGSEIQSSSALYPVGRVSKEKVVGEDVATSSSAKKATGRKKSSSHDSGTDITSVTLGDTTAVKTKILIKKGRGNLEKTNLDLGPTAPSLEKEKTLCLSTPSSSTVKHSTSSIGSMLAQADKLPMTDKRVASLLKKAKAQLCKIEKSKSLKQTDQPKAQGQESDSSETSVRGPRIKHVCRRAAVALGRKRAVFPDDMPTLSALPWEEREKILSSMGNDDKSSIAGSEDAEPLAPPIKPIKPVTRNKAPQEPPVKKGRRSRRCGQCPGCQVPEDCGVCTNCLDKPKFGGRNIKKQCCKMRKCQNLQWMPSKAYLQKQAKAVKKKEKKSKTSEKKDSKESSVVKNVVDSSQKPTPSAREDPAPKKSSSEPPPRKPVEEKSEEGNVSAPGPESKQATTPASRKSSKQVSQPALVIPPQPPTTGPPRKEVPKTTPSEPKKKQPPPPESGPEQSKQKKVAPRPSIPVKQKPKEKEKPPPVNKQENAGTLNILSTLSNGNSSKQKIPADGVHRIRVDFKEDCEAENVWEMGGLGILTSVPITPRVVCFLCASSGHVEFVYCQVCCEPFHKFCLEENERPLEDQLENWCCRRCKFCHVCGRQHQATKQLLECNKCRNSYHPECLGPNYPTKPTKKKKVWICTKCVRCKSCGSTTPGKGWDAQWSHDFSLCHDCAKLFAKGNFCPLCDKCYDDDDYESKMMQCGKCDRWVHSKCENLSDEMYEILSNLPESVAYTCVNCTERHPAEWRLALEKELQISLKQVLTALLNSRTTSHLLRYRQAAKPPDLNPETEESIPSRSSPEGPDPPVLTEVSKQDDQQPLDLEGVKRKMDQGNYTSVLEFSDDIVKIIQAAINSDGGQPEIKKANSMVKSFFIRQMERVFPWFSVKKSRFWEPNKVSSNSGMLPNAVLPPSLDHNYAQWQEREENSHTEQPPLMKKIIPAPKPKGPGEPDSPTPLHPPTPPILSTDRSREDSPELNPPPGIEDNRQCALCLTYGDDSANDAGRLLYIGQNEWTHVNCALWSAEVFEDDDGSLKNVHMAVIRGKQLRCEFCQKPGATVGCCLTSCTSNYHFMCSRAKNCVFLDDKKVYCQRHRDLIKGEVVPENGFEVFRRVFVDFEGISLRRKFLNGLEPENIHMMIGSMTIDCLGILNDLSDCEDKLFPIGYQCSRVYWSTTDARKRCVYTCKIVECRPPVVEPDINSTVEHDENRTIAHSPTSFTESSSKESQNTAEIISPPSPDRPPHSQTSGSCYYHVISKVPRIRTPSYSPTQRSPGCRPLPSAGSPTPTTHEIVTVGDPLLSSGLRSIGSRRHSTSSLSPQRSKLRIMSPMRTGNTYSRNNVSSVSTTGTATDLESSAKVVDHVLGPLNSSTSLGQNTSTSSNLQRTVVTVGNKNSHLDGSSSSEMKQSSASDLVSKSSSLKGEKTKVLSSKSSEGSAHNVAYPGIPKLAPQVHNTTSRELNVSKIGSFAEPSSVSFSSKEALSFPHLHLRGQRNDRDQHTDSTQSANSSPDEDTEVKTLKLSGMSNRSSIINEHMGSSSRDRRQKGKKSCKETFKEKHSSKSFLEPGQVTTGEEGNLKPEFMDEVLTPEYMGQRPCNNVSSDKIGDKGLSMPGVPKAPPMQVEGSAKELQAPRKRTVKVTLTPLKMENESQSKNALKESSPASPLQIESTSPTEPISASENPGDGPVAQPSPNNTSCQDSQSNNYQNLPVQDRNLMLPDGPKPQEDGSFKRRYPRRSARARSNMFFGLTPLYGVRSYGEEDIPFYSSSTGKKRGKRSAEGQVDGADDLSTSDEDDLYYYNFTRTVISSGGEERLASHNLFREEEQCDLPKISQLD
Chain of Menin/Histone-lysine N-methyltransferase MLL (Q03164 2719-3969 limits assumed): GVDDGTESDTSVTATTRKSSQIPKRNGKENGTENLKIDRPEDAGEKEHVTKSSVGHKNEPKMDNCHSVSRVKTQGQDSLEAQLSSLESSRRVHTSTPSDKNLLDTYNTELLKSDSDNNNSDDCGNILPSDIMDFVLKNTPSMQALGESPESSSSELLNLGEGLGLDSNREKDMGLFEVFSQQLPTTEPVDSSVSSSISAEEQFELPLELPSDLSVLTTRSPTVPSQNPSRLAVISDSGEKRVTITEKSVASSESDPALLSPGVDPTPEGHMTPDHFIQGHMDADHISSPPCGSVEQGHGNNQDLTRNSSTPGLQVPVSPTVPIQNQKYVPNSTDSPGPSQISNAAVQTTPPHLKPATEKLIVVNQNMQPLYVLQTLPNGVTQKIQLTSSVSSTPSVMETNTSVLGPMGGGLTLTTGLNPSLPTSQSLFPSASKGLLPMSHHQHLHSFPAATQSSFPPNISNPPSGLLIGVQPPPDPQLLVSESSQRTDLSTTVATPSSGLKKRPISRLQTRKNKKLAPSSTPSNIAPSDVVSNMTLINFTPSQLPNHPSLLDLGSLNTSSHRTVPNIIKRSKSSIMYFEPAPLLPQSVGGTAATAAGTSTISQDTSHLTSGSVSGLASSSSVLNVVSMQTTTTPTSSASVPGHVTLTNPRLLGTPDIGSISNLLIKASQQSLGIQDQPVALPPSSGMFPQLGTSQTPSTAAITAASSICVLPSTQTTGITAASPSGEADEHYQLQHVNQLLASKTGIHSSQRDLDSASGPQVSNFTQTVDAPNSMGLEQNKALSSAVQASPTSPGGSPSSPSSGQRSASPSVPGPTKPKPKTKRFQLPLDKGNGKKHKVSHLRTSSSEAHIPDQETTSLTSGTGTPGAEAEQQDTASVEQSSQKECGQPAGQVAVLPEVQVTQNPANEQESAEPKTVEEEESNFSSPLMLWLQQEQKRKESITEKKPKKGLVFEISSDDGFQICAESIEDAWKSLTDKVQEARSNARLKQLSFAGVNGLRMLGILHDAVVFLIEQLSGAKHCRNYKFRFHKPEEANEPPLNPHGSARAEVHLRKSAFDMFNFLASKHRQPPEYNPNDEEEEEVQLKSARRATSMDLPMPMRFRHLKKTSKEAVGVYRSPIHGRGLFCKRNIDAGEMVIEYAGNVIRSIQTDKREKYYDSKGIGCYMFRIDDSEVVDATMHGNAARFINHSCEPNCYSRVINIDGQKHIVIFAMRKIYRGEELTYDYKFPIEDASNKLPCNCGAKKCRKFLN
In data set [11] the test system is K562. The data set can be described thus: Anticancer activity against human K562 cells assessed as cell growth inhibition measured after 7 days by WST-8 assay. The format is functional. The conditions noted are these: K562, 168 h, time 7 day.
The subject of data set [12] is HL-60. In words: Anticancer activity against human HL-60 cells assessed as cell growth inhibition measured after 7 days by WST-8 assay. The conditions noted are these: HL-60, 168 h, time 7 day. The format is functional.
Data set [13] relates to PBMC. The data set can be described thus: Anticancer activity against mouse PBMC cells harboring NUP98-NSD1 fusion protein assessed as cell growth inhibition measured after 3 days by MTT assay. The format is functional. As to conditions: 72 h, time 3 day.
For data set [14], the system named is PBMC. In words: Anticancer activity against mouse PBMC cells harboring NUP98-NSD1 fusion protein assessed as cell growth inhibition measured after 7 days by MTT assay. The format is functional. The conditions noted are these: 168 h, time 7 day.
The test system of data set [15] is MV4-11. In words: Anticancer activity against human MV4-11 cells assessed as cell growth inhibition. In kind it is functional.
In data set [16] the test system is HL-60. The data set can be described thus: Anticancer activity against human HL-60 cells assessed as cell growth inhibition. In kind it is functional.
The nature of data set [17]: Selectivity index, ratio of GI50 for human MV4-11 cells harboring MLL-AF4 fusion protein to ratio of GI50 for human HL-60 cells. In kind it is functional.
Data set [18] has as its target Histone-lysine N-methyltransferase EZH2 (Homo sapiens, UniProt Q15910). The data set can be described thus: Inhibition of EZH2 (unknown origin).

Each structure is given as a SMILES string. Where only a bound is given, the exact number is not on record here.

In the case of `COc1cc2c(NC3CCN(C(C)C)CC3)nc(C3CCCCC3)nc2cc1OCCCN1CCCC1`, half-maximal inhibition in data set [1] (IC50) was put at 81 nM.

As for `CC1(C)CN=C(N2CCN(c3ncnc4sc5c(c34)CCCC5)CC2)S1`, the bioavailability in data set [2] worked out at 77%.

`O=C(CCl)Nc1ccc(S(=O)(=O)c2ccc(NC(=O)CCl)cc2)cc1`: the GI50 in data set [3] came to 684 nM; in data set [4] it was 702 nM; in data set [5], 597 nM; in data set [6], 413 nM.

On to `COC(=O)N[C@H]1CCC[C@@H]1[C@](C#N)(c1cccc(F)c1)C1CCN(CC2CN(c3ccc(S(=O)(=O)C4CN(C(=O)/C=C/CN(C)C)C4)cc3)C2)CC1`, for which the GI50 amounted to 900 nM in data set [7]; 2.3 nM in data set [8]; 900 nM in data set [9]; 900 nM in [11]; 900 nM in data set [12]. In [10], this molecule showed an IC50 of 3 nM.

For `CC1CN1c1cc(O)c2nc(N)sc2c1` (stereo unspecified), the figures for the GI50 in [13] and in data set [14] were 1300 nM and 870 nM, respectively.

For `C=CC(=O)N1CC(S(=O)(=O)c2ccc(N3CC(CN4CCC([C@@](C#N)(c5cccc(F)c5)[C@H]5CCC[C@@H]5NC(=O)OC)CC4)C3)cc2)C1`, the GI50 in [15] worked out at 6 nM; in data set [16] it was 3200 nM. The RatioGI50 in data set [17] is more than 500.

With `COC(=O)N[C@H]1CCC[C@@H]1[C@](C#N)(c1cccc(F)c1)C1CCN(CC2CN(c3ccc(S(=O)(=O)C4CCC4)cc3)C2)CC1`, the GI50 in data set [15] amounted to 210 nM. The same molecule showed an IC50 in data set [10] of 7 nM.

On to `C=CC(=O)Nc1cc(-c2ccc(N3CCNCC3)cc2)cc(C(=O)NCc2c(CC)cc(C)[nH]c2=O)c1C`, for which the IC50 in [18] is 47 nM.

In data set [1], `COc1cc2nc(N3CCCN(C)CC3)nc(NC3CCN(Cc4ccccc4)CC3)c2cc1OC` came in with an IC50 of 500 nM.
